Assay results published in patent US11472803B2, “7-substituted 1-aryl-naphthyridine-3-carboxylic acid amides and use thereof” (Bayer Aktiengesellschaft, priority 2016, dated 2022).
pEC50: −log10 of the molar value.

Molecular target: T1, human M2 receptor (Homo sapiens, UniProt P08172)
T1 construct: expressed in transfected cells; host or cells: CHO-DUKX (CHO-DUKX-M2-GIRK)
T1 sequence (P08172 1-466): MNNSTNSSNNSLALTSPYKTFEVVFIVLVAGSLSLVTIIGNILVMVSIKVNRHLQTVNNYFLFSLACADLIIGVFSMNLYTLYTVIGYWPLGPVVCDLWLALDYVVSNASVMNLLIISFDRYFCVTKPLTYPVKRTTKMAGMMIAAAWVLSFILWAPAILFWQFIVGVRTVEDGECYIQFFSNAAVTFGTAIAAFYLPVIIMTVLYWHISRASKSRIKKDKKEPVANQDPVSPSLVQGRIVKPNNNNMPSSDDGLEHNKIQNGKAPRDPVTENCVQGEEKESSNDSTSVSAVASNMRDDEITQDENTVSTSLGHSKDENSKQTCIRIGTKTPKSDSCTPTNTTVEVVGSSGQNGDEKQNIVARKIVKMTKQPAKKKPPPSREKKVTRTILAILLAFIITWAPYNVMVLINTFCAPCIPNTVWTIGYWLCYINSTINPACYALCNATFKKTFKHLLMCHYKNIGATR
Assay: Functional M2-GIRK1/4 activation test: allosteric potency (EC50) and efficiency at EC20 acetylcholine
Type: cell-based
Details: CHO-DUKX-M2-GIRK cells; for pEC50: voltage-sensitive dye, acetylcholine at EC20, in some cases mean of two or more determinations; for Emax / Efficiency: boosting of the acetylcholine effect at EC20 acetylcholine concentration
Source text: The binding of orthosteric agonists (endogenous ligand: acetylcholine) to the M2 receptor leads to receptor activation or a change in conformation of the receptor in the manner of a shift in equilibrium in favour of the active receptor conformation.
The agonist-induced change in conformation of the M2 receptor results in a Gαi protein activation. […] Under physiological conditions, the result is then a selective efflux of potassium from the cell along the electrochemical gradient. […] The extent of hyperpolarization can therefore be regarded as a measure of the activation of the M2 receptor.
The test cell used is a recombinant CHO-DUKX cell line which has been stably transfected with cDNA coding for the human M2 receptor and with cDNA coding for both GIRK1/4 subunits (CHO-DUKX-M2-GIRK). The transmembrane potential, or the relative changes in the transmembrane potential as a function of substance addition or M2 activation, is determined by means of a voltage-sensitive dye (FLIPR Membrane Potential Assay Kit Blue, Molecular Devices #R8034) and the measurement of cell fluorescence using a proprietary fluorescence imaging instrument.
The sowing medium consisted of MEM alpha medium (supplemented with 5% PCS, 2% Glutamax, no genticin).
For the particular measurement, the medium was removed and the cells were laden with the volt-age-sensitive dye for at least 6 min at room temperature (30 μl of loading buffer per 384-well). This was followed, in a first measurement, by the determination of the fluorescence for the resting transmembrane potential for a period of 5 sec. Thereafter, 10 μl in each case of the test substances diluted in loading buffer were added, followed by a second measurement to determine the transmembrane potential for a period of 50 sec in 1 sec increments. Finally, the cells were admixed with 10 μl of agonist solution (acetylcholine dissolved in loading buffer). Acetylcholine was used at the concentration corresponding to the EC20, which had been determined in a preliminary test. The M2-mediated GIRK1/4 activation or hyperpolarization was then monitored in a third measurement over a period of 60 sec. The EC50 value (degree of allosteric potency of test compound) and the efficiency (measure of the boosting of the acetylcholine effect at an EC20 acetylcholine concentration) were determined with the aid of a 4-parameter logistic function (Hill function).

SMILES | pEC50 | Emax [%] | Efficiency [%]
CC(C)(NC(=O)c1cn(-c2c(F)cc(F)cc2F)c2nc(N3CC4(COC4)C3)c(F)cc2c1=O)C(F)(F)C(F)(F)F (racemic) [Example 163, 6-Fluoro-7-(2-oxa-6-azaspiro[3.3]hept-6-yl)-4-oxo-N-(3,3,4,4,4-pentafluoro-2-methylbutan-2-yl)-1-(2,4,6-trifluorophenyl)-1,4-dihydro-1,8-naphthyridine-3-carboxamide] | 7.60 | 93 | –
CC(NC(=O)c1cn(-c2c(F)cc(F)cc2F)c2nc(N3CC(CO)(CO)C3)c(F)cc2c1=O)C(F)(F)C(F)(F)F (racemic) [Example 168, 7-[3,3-Bis(hydroxymethyl)azetidin-1-yl]-6-fluoro-4-oxo-N-[3,3,4,4,4-pentafluorobutan-2-yl]-1-(2,4,6-trifluorophenyl)-1,4-dihydro-1,8-naphthyridine-3-carboxamide] | 8.40 | 86 | –
CCC(NC(=O)c1cn(-c2c(F)cc(F)cc2F)c2nc(N3CC(CO)(CO)C3)c(F)cc2c1=O)C(F)(F)C(F)(F)F (racemic) [Example 171, 7-[3,3-Bis(hydroxymethyl)azetidin-1-yl]-6-fluoro-4-oxo-N-[1,1,1,2,2-pentafluoropentan-3-yl]-1-(2,4,6-trifluorophenyl)-1,4-dihydro-1,8-naphthyridine-3-carboxamide] | 8.89 | 95 | –
CC(C)C(COC(F)(F)F)NC(=O)c1cn(-c2c(F)cc(F)cc2F)c2nc(N3C[C@@H](O)[C@H](O)C3)c(F)cc2c1=O (mixture of isomers) [Example 233, 7-[(3R,4R)-3,4-dihydroxypyrrolidin-1-yl]-6-fluoro-N-[3-methyl-1-(trifluoromethoxy)butan-2-yl]-4-oxo-1-(2,4,6-trifluorophenyl)-1,4-dihydro-1,8-naphthyridine-3-carboxamide] | 8.64 | 100 | –
CCC(NC(=O)c1cn(-c2c(F)cc(F)cc2F)c2nc(N3C[C@@H](O)[C@H](O)C3)c(F)cc2c1=O)C(C)C (single isomer, unassigned) [Example 29] | 8.60 | 100 | –
CCC(NC(=O)c1cn(-c2c(F)cc(F)cc2F)c2nc(N3C[C@@H](O)[C@H](O)C3)c(F)cc2c1=O)C(C)C (single isomer, unassigned) [Example 30] | 8.59 | – | 100
CC(NC(=O)c1cn(-c2ncc(F)cc2F)c2nc(N3CC(O)C(O)C3)c(F)cc2c1=O)C(F)(F)C(F)(F)F (single isomer, unassigned) [Example 46] | 7.29 | – | 100
CC[C@H](NC(=O)c1cn(-c2c(F)cc(F)cc2Cl)c2nc(N3C[C@@H](O)[C@H](O)C3)c(F)cc2c1=O)C(F)(F)F (single isomer, unassigned) [Example 47] | 7.32 | 81 | –
CC(C)(NC(=O)c1cn(-c2c(F)cc(F)cc2Cl)c2nc(N3C[C@@H](O)[C@H](O)C3)c(F)cc2c1=O)C(F)(F)F (single isomer, unassigned) [Example 49] | 7.17 | 74 | –
CC(C)(NC(=O)c1cn(-c2c(F)cc(F)cc2Cl)c2nc(N3C[C@@H](O)[C@H](O)C3)c(F)cc2c1=O)C(F)(F)F (single isomer, unassigned) [Example 50] | 8.60 | – | 60
O=C(N[C@@H](C1CC1)C(F)(F)F)c1cn(-c2c(F)cc(F)cc2Cl)c2nc(N3C[C@@H](O)[C@H](O)C3)c(F)cc2c1=O (single isomer, unassigned) [Example 51] | 7.44 | 81 | –
O=C(N[C@@H](C1CC1)C(F)(F)F)c1cn(-c2c(F)cc(F)cc2Cl)c2nc(N3C[C@@H](O)[C@H](O)C3)c(F)cc2c1=O (single isomer, unassigned) [Example 52] | 8.89 | – | 83
CCN(CC(C)O)c1nc2c(cc1F)c(=O)c(C(=O)N[C@@H](C1CC1)C(F)(F)F)cn2-c1c(F)cc(F)cc1F (single isomer, unassigned) [Example 66] | 7.46 | 92 | –
CCN(CC(C)O)c1nc2c(cc1F)c(=O)c(C(=O)N[C@@H](C1CC1)C(F)(F)F)cn2-c1c(F)cc(F)cc1F (single isomer, unassigned) [Example 67] | 8.00 | – | 95
O=C(N[C@@H](C1CC1)C(F)(F)F)c1cn(-c2c(F)cc(F)cc2Cl)c2nc(N3CC(CO)(CO)C3)c(F)cc2c1=O (single isomer, unassigned) [Example 70] | 7.00 | 86 | –
CCC(COC(F)(F)F)NC(=O)c1cn(-c2c(F)cc(F)cc2F)c2nc(N3C[C@@H](O)[C@@H](O)C3)c(F)cc2c1=O (single isomer, unassigned) [Example 96] | 7.80 | 96 | –
CCC(COC(F)(F)F)NC(=O)c1cn(-c2c(F)cc(F)cc2F)c2nc(N3C[C@@H](O)[C@@H](O)C3)c(F)cc2c1=O (single isomer, unassigned) [Example 97] | 7.89 | – | 97
CCC(COC(F)(F)F)NC(=O)c1cn(-c2c(F)cc(F)cc2F)c2nc(N3CC[C@H](O)C3)c(F)cc2c1=O (single isomer, unassigned) [Example 110] | 7.72 | 100 | –
CCC(COC(F)(F)F)NC(=O)c1cn(-c2c(F)cc(F)cc2F)c2nc(N3CC[C@H](O)C3)c(F)cc2c1=O (single isomer, unassigned) [Example 111] | 8.14 | – | 99
CC(NC(=O)c1cn(-c2c(F)cc(F)cc2F)c2nc(N3CC[C@H](O)C3)c(F)cc2c1=O)C(F)(F)C(F)(F)F (single isomer, unassigned) [Example 114] | 8.15 | – | 94
CCC(NC(=O)c1cn(-c2c(F)cc(F)cc2F)c2nc(N3CC[C@H](O)C3)c(F)cc2c1=O)C(C)C (single isomer, unassigned) [Example 117] | 8.16 | 99 | –
CCC(NC(=O)c1cn(-c2c(F)cc(F)cc2F)c2nc(N3CC[C@H](O)C3)c(F)cc2c1=O)C(C)C (single isomer, unassigned) [Example 118] | 8.55 | – | 100
CC(NC(=O)c1cn(-c2ncc(F)cc2F)c2nc(N3CC[C@H](O)C3)c(F)cc2c1=O)C(F)(F)C(F)(F)F (single isomer, unassigned) [Example 128] | 8.01 | 90 | –
CC(NC(=O)c1cn(-c2ncc(F)cc2F)c2nc(N3CC[C@H](O)C3)c(F)cc2c1=O)C(F)(F)C(F)(F)F (single isomer, unassigned) [Example 129] | 7.18 | – | 95
CC(C)C(NC(=O)c1cn(-c2c(F)cc(F)cc2F)c2nc(N3C[C@@H](O)[C@@H](O)C3)c(F)cc2c1=O)C(F)(F)F (single isomer, unassigned) [Example 137] | 8.48 | 91 | –
CC(C)C(NC(=O)c1cn(-c2c(F)cc(F)cc2F)c2nc(N3C[C@@H](O)[C@@H](O)C3)c(F)cc2c1=O)C(F)(F)F (single isomer, unassigned) [Example 138] | 8.12 | – | 84
CC(C)C(NC(=O)c1cn(-c2c(F)cc(F)cc2F)c2nc(N3CC[C@H](O)C3)c(F)cc2c1=O)C(F)(F)F (single isomer, unassigned) [Example 139] | 8.47 | 100 | –
CC(C)C(NC(=O)c1cn(-c2c(F)cc(F)cc2F)c2nc(N3CC[C@H](O)C3)c(F)cc2c1=O)C(F)(F)F (single isomer, unassigned) [Example 140] | 8.28 | – | 95
CC(C)(NC(=O)c1cn(-c2c(F)cc(F)cc2Cl)c2nc(N3C[C@@H](O)[C@H](O)C3)c(F)cc2c1=O)C(F)F (single isomer, unassigned) [Example 142] | 7.41 | 99 | –
